Data published in patent US9757477B2, “Imaging brown adipose tissue with curcumin derivatives” (The General Hospital Corporation, priority 2013, dated 2017).
Values joined by “and” are separate entries in the source; they are usually repeats but may differ in a detail not shown here. Equal values may be shown once.

Experiments:
UCP-1 = experiment: qPCR for UCP-1 expression in dissected sWAT; type: in vivo, C57BL6 mice; conditions: CL 316,243 1.0 mg/kg i.p. for 12 days
Procedure: (§1) Two-month old C57BL6 mice (n=5) were i.p. injected CL 316,243 (100 uL, 1.0 mg/kg) for 12 days, and the control mice (n=5) were i.p. injected with saline. On the 13th day, both groups were imaged after i.v. injection of CRANAD-29. Images were acquired at 1-, 2-, 4-hours after the probe injection. After the last imaging session, inguinal sWAT were dissected after scarification of the mice, and the dissected sWAT tissue was subjected to qPCR for UCP-1 expression and H&E staining

inguinal sWAT = experiment: Monitoring browning of subcutaneous WAT after CL 316,243 treatment; type: in vivo, C57BL6 mice; conditions: CL 316,243 1.0 mg/kg i.p. for 12 days
Procedure: as §1

interscapular BAT [1] = experiment: PET imaging with 18F-labeled curcumin analogue; type: in vivo, mice; conditions: 100-180 μCi tail vein
Procedure: PET imaging was conducted with a microPET P4 system (Concorde Microsystems Incorporated, Knoxville, Tenn., USA). The imaging parameters of this system are in-plane and axial resolution of 1.2 mm full width at half maximal count. Prior to PET imaging, mice were anesthetized with isoflurane/O2, and then fixed to the imaging table with a custom-fabricated mold. Injection catheter was placed in tail vein for administration of the radiotracer. Subsequently, CRANAD-5F^18 (100-180 μCi) was injected into the tail vein and volumetric dynamic data were acquired in list-mode format for 120 min. Imaging data were corrected for uniformity, attenuation, decay, and acquisition time. PET images were reconstructed using filtered back projection with a Ramp filter (cutoff value of 0.5). The software, ASIPro 6.0, was provided by the microPET manufacturer.

interscapular BAT [2] = experiment: Top-down whole-organism NIR fluorescence screening of dyes (ROI1/ROI2 contrast); type: in vivo, nude mice; conditions: for Ratio No 1 (ROI1/ROI2 average fluorescence intensity) / Ratio No 2 (ROI1/ROI2 average fluorescence intensity) / Ratio No 3 (ROI1/ROI2 average fluorescence intensity) / Ratio AVERAGE (mean ratio ROI1/ROI2): nude mice, one hour post-injection; for Ratio No 1 (ROI1/ROI2 average fluorescence intensity) / Ratio No 2 (ROI1/ROI2 average fluorescence intensity) / Ratio No 3 (ROI1/ROI2 average fluorescence intensity): 10 μg/mouse i.v.; for Ratio No 1 (ROI1/ROI2 average fluorescence intensity): first excitation/emission filter pair; for Ratio No 2 (ROI1/ROI2 average fluorescence intensity): second excitation/emission filter pair; for Ratio No 3 (ROI1/ROI2 average fluorescence intensity): third excitation/emission filter pair; for Ratio AVERAGE (mean ratio ROI1/ROI2): i.v., mean of three filter pairs, hit threshold >1.10
Procedure: 38 fluorescent dyes from commercial resources and from the inventors' laboratory were screened. Dyes with excitation range of 550-745 nm, emission range of 600-840 nm, and with molecular weight of less than 700 Da (except Cy5.5) (representative dyes are listed in FIG. 1d and the full list is shown in Table 2). Their hydrophobicities were not determined. The library was screened by intravenous tail injection of compounds into nude mice (10μg/mouse). Each dye was imaged with three optimized excitation/emission filter-pairs, and images at one hour after i.v. injection were acquired.
Top-down whole organism screening was performed as follows. Nude mice (nu/nu COX7) were purchased from Massachusetts General Hospital and Balb/c mice were from Jackson Laboratory. All animal experimental procedures were approved by the Institutional Animal Care and Use Committee (IACUC) at Massachusetts General Hospital. Dye stock solutions were prepared in DMSO. The final injection solution (0.1 mg/ml) was freshly prepared in a mixed solution of 20% DMSO, 20% Cremophor EL and 60% saline. Nude mice (n=5) were injected with a 100 μL dye solution via tail vein. For each imaging session, mice were anesthetized with a mixture of oxygen and isoflurane for 5 minutes, and then positioned into the imaging chamber of IVIS® Spectrum in vivo pre-clinical imaging system. Images were acquired at one-hour post-injection using sequence imaging with three excitation/emission filter pairs for each dye.
Hits selection was performed as follows. Hits from cell- or protein-based screening are usually selected by setting certain threshold. In the case of the top-down imaging screening, two methods were used (threshold and visible contrast) to select hits. First, three images obtained with three excitation/emission pairs were selected for each dye. These ex/em pairs were selected from the closest excitation and emission wavelengths of the tested dyes. For instance, 605/660 nm, 605/680 nm, 640/680 nm were selected for image acquisition of Nile blue (625/660 nm). The quantification of contrast for each image was calculated as a ratio of two ROIs (region of interest). ROI1 reflected the average signal from interscapular BAT and ROI2 was the average signal of the area that included BAT and white adipose tissue (WAT) around the interscapular site (FIG. 1b, left). The averaged fluorescent signal of ROI was used instead of the total signal, because the total signal depends on the area of ROI, whereas the averaged signal reflects the density of signal. The ratio of ROI1/ROI2 could reflect the signal/noise ratio of the tested probe, and could also reflect the selectivity of the probe for BAT over WAT. For each dye, three ROI1/ROI2 ratios obtained with the three filter pairs were calculated. The mean of the ratios was used as the threshold. If the mean ratio was >1.10, the dye was selected as a potential positive hit (FIG. 1c). Since the contrast of a dye in the top-down screening is in the visible range, the visible contrast around the interscapular BAT area was also tested for the hits with the mean ratio of >1.10. If both mean ratio and the visible contrast were positive, then the hit was subjected to re-testing procedure to validate its reliability as described below.
Although CRANAD-2 and CRANAD-3 were able to provide certain contrast for BAT in vivo, their excitation and emission wavelengths were still shorter than required for an ideal NIR imaging probe (both excitation and emission >640 nm). […] To seek better probes, a sub-library was synthesized based on the structures of the lead probes CRANAD-2 and -3. CRANAD-6, -19, -22, -24, -26, -32 and -43 were synthesized and tested (images and chemical structures, excitation and emission spectra are shown in FIG. 9 a-e). […] However, the ROI1/ROI2 ratio of CRANAD-22 was not improved (FIG. 9c).

[3] = system: differentiated 3T3-L1 cells; experiment: Probe uptake in differentiated 3T3-L1 cells (IVIS and two-photon imaging, competition); type: cell-based
Procedure: (§2) To investigate the facilitated diffusion of CRANAD-2, the time courses of CRANAD-2 uptake in 3T3-L1 cells were compared before and after differentiation. Two-photon imaging for 3T3-L1 cells was performed as follows. Fibroblast 3T3-L1 cells were differentiated following the protocol provided by Zenbio, Inc. (protocol No. ZBM0009.02). Ten microliters of CRANAD-2 (250 μM in DMSO) was added to the differentiated cells (1.0 ml). Cells were imaged after 10 min of incubation. A 940 nm laser was first used to capture an image for CRANAD-2 in 570-620 nm channel (Prairie Two-photon microscope, Middleton, Wis.). Next, the laser was tuned to 750 nm to capture autofluorescence of the cells to outline cell morphology.
For triglyceride competition, stock solutions of CRANAD-2 (250 μM) and triglyceride (5 mM) in DMSO were prepared. Before imaging, 10 μl of the stock solution was added to the cells.
(§3) IVIS imaging of 3T3-L1 cells with CRANAD-2 was performed as follows. To a 6-well plate seeded with preadipocytes or differentiated adipocytes, a 10 μL solution of CRANAD-2 (250 μM in DMSO) was added. The plate was subjected to imaging using IVIS imaging system with Ex=605 nm, Em=660 nm before and after addition of CRANAD-2. For triglyceride competition, the same protocol for two-photon imaging was used. The images were acquired at 20 min after addition of CRANAD-2. Studies were performed in triplicate.
(§4) The uptake of CRANAD-29 in 3T3-L1 cells before and after differentiation was compared. IVIS imaging of 3T3-L1 cells with CRANAD-29 was performed as follows. To a 6-well plate seeded with preadipocytes or differentiated adipocytes, a 10 μL solution of CRANAD-29 (250 μM in DMSO) was added. The plate was subjected to imaging using IVIS imaging system with Ex=640 nm, Em=700 nm before and after addition of CRANAD-29. For triglyceride competition and Hexarelin inhibition, the similar protocol for CRANAD-2 imaging was used. The final concentration of hexarelin was 12.5 μM, and the images were acquired at 3 hours after addition of CRANAD-29 and triglyceride/Hexarelin. Studies were performed in triplicate.

[4] = system: undifferentiated 3T3-L1 cells; experiment: Probe uptake in undifferentiated 3T3-L1 cells (IVIS imaging); type: cell-based
Procedure: as §2, §3, §4

[5] = Excitation and emission wavelengths of BAT imaging agents; type: physicochemical
Procedure: In some embodiments, the methods include irradiating the mammal with light of the appropriate wavelength to excite the BAT imaging agent, and detecting emissions therefrom.
Fluorescent dyes were purchased from Exciton Inc. (Dayton, Ohio) and Invitrogen. The reagents used for the synthesis were purchased from Aldrich and used without further purification. Column chromatography was performed on silica gel (SiliCycle Inc., 60 Å, […]) slurry packed into glass columns. 1H, 13C NMR spectra were recorded at 500 MHz and 125 MHz respectively, and reported in ppm downfield from tetramethylsilane. Fluorescence studies were carried out using a F-4500 Fluorescence Spectrophotometer (Hitachi). Mass spectra were obtained at Harvard University, Department of Chemistry Instrumentation Facility. Microscopic images were acquired with Nikon Eclipse 50i microscope. In vivo NIR imaging was performed using the IVIS® Spectrum animal imaging system (Caliper LifeSciences, Perkin Elmer, Hopkinton, Mass.), and data analysis was conducted using LivingImage® 4.2.1 software.

brown adipose cells = experiment: Ex vivo histology of dissected BAT slices; set-up: species or system mice; conditions: fluorescence microscopy
Procedure: (§5) Next the time course of CRANAD-2 and CRANAD-3 accumulation in BAT area was investigated. […] Similarly, the signal of CRANAD-3 reached the uptake peak around one hour, and then gradually washed out (FIG. 8c-d). Accumulation of CRANAD-2 and -3 in BAT was further confirmed with ex vivo histology of the dissected BAT slices, performed as follows. The dissected BAT was fixed with 4% formalin at 4° C. overnight, and then embedded into OCT. BAT tissue was cut into 7 micron thickness slices, washed with PBS buffer, and co-stained with DAPI (Vectra Shield, Vector Lab, Burlingame, Calif.). Images were acquired with fast exposure to capture the dye signal in the oil droplets. To outline cell membrane cell autofluorescence was captured with long exposure after image of the dye signal from oil droplets was already acquired. To further validate the capacity of CRANAD-29 for BAT labeling, ex vivo histological microscopic imaging with CRANAD-29 was conducted. […] Gold standard H&E staining also provided similar images (FIG. 10a). […] The injection dose of CRANAD-29 was optimized, and the fluorescence signal reached its plateau at 0.4 mg/kg (FIG. 11). In the following studies, 0.1 mg/kg dose was used.

interscapular BAT [6] = experiment: Re-testing of hits with stepwise dissection and NIR imaging; type: in vivo, mice
Procedure: Like protein/cell-based screening, hit re-testing experiments were conducted to validate the reliability of this approach. CRANAD-2, -3, LDS 722 and Rhodamine 640 were subjected to re-testing by repeating the above imaging procedure. Images were acquired one hour after probe injection.
Next, stepwise dissection and imaging were performed to track the source of the fluorescence contrast at the interscapular site. Skin and the thin WAT layer that covers BAT were first removed, and then BAT was dissected, and NIR images were captured at each step. […] The signal contribution from BAT (R(BAT)) was roughly estimated using the ratio of fluorescence signals acquired after (F(BAT)) and before (F(intact)) the first step dissection of skin and WAT.

[7] = system: BAT cells induced from wild-type brown preadipocytes; experiment: In vitro staining of BMPs-induced BAT cells (live cell confocal); type: cell-based; conditions: live cell confocal images
interscapular BAT [8] = experiment: Time course and dose optimization of probe signal in BAT area after i.v. injection; type: in vivo, mice; conditions: mouse, in vivo, iv
Procedure: as §5

SMILES: C[C@H](Cc1ccc2c(c1)OC(C(=O)[O-])(C(=O)[O-])O2)NC[C@H](O)c1cccc(Cl)c1.[Na+].[Na+] [CL 316,243]
- UCP-1 mRNA level in sWAT, treated mice vs control group (UCP-1): 7.9 fold
- H&E staining of sWAT slice of treated mice (inguinal sWAT): cells with multilocular lipid droplets

SMILES: CN(C)c1ccc(C=CC(O)=CC(=O)C=Cc2ccc(N(C)CC[18F])cc2)cc1 [CRANAD-5F]
- in vivo PET imaging of BAT (interscapular BAT [1]): clearly highlighted BAT at the interscapular site

SMILES: CC[N+](CC)=c1ccc2nc3c(cc(N)c4ccccc43)oc-2c1 [Nile Blue]
- Ratio No 1 (ROI1/ROI2 average fluorescence intensity) (interscapular BAT [2]): 1.00E+00
- Ratio No 2 (ROI1/ROI2 average fluorescence intensity) (interscapular BAT [2]): 9.89E−01
- Ratio No 3 (ROI1/ROI2 average fluorescence intensity) (interscapular BAT [2]): 9.62E−01
- Ratio AVERAGE (mean ratio ROI1/ROI2) (interscapular BAT [2]): 9.84E−01
- uptake in differentiated cells over the time course ([3]; differentiated 3T3-L1 cells): rapidly reached the plateau
- uptake with triglyceride competition ([3]; triglyceride added with probe, two-photon microscopy and IVIS): no significant decrease in uptake
- uptake in undifferentiated cells over the time course [4]: rapidly reached the plateau

SMILES: CCN(CC)c1ccc(/C=C/C2=CC(/C=C/c3ccc(N(CC)CC)nc3)=[O+][B-](F)(F)O2)cn1 [CRANAD-3]
- Emission λ [5]: 660 nm
- Excitation λ [5]: 570 nm
- labeling in ex vivo histology of BAT slices (brown adipose cells): labeled oil droplets in brown adipose cells
- R(BAT), signal contribution from BAT, F(BAT)/F(intact) (interscapular BAT [6]; fluorescence after vs before dissection of skin and WAT, roughly estimated): 0.51
- contrast among the re-tested dyes (interscapular BAT [6]; images one hour after probe injection): highest contrast
- fluorescence signal from BAT (before vs after BAT removal) (interscapular BAT [6]; stepwise dissection): able to label BAT
- selectivity for BAT (over WAT) (interscapular BAT [6]; stepwise dissection): low
- visible contrast around the interscapular BAT area (interscapular BAT [2]; in vivo NIR images): best contrast and clear triangular contour
- Ratio No 1 (ROI1/ROI2 average fluorescence intensity) (interscapular BAT [2]): 1.34E+00
- Ratio No 2 (ROI1/ROI2 average fluorescence intensity) (interscapular BAT [2]): 1.33E+00
- Ratio No 3 (ROI1/ROI2 average fluorescence intensity) (interscapular BAT [2]): 1.31E+00
- Ratio AVERAGE (mean ratio ROI1/ROI2) (interscapular BAT [2]): 1.32 and 1.32E+00
- staining of oil droplets in BAT cells [7]: able to clearly label oil droplets in BAT cells
- time of uptake peak in BAT area (interscapular BAT [8]): around one
